In article PMC3701070 (PLoS ONE, 2013):

Experiments:
Experiment in all cases: Cell growth assay
Assay type in all cases: cell-based
SNU-449 = conditions: Homo sapiens, 72 h; SNU-449, RAF WT, RAS WT, 3-day; read-out: gIC50
How it was run: (§1)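 Inhibition of cell growth is given as gIC50. It was measured by CellTiter-Glo at t = 0 and 72 h.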

EFM-19 = conditions: Homo sapiens, 72 h; EFM-19, RAF WT, RAS WT, 3-day; read-out: gIC50
How it was run: as §1

HCC-1954 = conditions: Homo sapiens, HCC1954, 72 h; HCC-1954, RAF WT, RAS WT, 3-day; read-out: gIC50
How it was run: as §1

SW1088 = conditions: Homo sapiens, 72 h; SW1088, RAF WT, RAS WT, 3-day; read-out: gIC50
How it was run: as §1

EKVX = conditions: Homo sapiens, 72 h, RAF WT, RAS WT, 3-day, read-out: gIC50
How it was run: as §1

SW-780 = conditions: Homo sapiens, SW780, 72 h; SW-780, RAF WT, RAS WT, 3-day; read-out: gIC50
How it was run: as §1

HuNS-1 = conditions: Homo sapiens, HuNS1, 72 h; HuNS-1, RAF WT, RAS WT, 3-day; read-out: gIC50
How it was run: as §1

SW480 = conditions: Homo sapiens, 72 h; SW480, RAF WT, KRAS(G12V), 3-day; read-out: gIC50
How it was run: as §1

BxPc3 = conditions: Homo sapiens, BXPC-3, 72 h; BxPc3, RAF WT, RAS WT, 3-day; read-out: gIC50
How it was run: as §1

HCC-2998 = conditions: Homo sapiens, 72 h; HCC-2998, RAF WT, KRAS(A146T), 3-day; read-out: gIC50
How it was run: as §1

NCI-H2228 = conditions: Homo sapiens, 72 h; NCI-H2228, RAF WT, RAS WT, 3-day; read-out: gIC50
How it was run: as §1

KPL-1 = conditions: Homo sapiens, 72 h; KPL-1, RAF WT, RAS WT, 3-day; read-out: gIC50
How it was run: as §1

JRT3-T35 = conditions: Homo sapiens, J-RT3-T3-5, 72 h; JRT3-T35, RAF WT, RAS WT, 3-day; read-out: gIC50
How it was run: as §1

U2OS = conditions: Homo sapiens, 72 h, RAF WT, RAS WT, 3-day, read-out: gIC50
How it was run: as §1

Daudi = conditions: Homo sapiens, 72 h, RAF WT, RAS WT, 3-day, read-out: gIC50
How it was run: as §1

SK-LMS-1 = conditions: Homo sapiens, 72 h; SK-LMS-1, RAF WT, RAS WT, 3-day; read-out: gIC50
How it was run: as §1

A204 = conditions: Homo sapiens, 72 h; A204, RAF WT, RAS WT, 3-day; read-out: gIC50
How it was run: as §1

KM-12 = conditions: Homo sapiens, KM12, 72 h; KM-12, RAF WT, RAS WT, 3-day; read-out: gIC50
How it was run: as §1

HT = conditions: Homo sapiens, 72 h, RAF WT, RAS WT, 3-day, read-out: gIC50
How it was run: as §1

HPAF-II = conditions: Homo sapiens, 72 h, RAF WT, RAS WT, 3-day, read-out: gIC50
How it was run: as §1

LS-174T = conditions: Homo sapiens, LS174T, 72 h, RAF WT, KRAS(G12D), 3-day, read-out: gIC50
How it was run: as §1

UACC-257 = conditions: Homo sapiens, 72 h; UACC-257, BRAF(V600E), RAS WT, 3-day; read-out: gIC50
How it was run: as §1

LNCaP = conditions: Homo sapiens, 72 h, RAF WT, RAS WT, 3-day, read-out: gIC50
How it was run: as §1

A549 = conditions: Homo sapiens, 72 h; A549, RAF WT, KRAS(G12S), 3-day; read-out: gIC50
How it was run: as §1

MCF-7 = conditions: Homo sapiens, MCF7, 72 h; MCF-7, RAF WT, RAS WT, 3-day; read-out: gIC50
How it was run: as §1

CGTHW1 = conditions: Homo sapiens, CGTH-W-1, 72 h; CGTHW1, RAF WT, RAS WT, 3-day; read-out: gIC50
How it was run: as §1

SW-837 = conditions: Homo sapiens, SW837, 72 h; SW-837, RAF WT, KRAS(G12C), 3-day; read-out: gIC50
How it was run: as §1

SCC-13 = conditions: Homo sapiens, 72 h; SCC-13, RAF WT, RAS WT, 3-day; read-out: gIC50
How it was run: as §1

KYSE-30 = conditions: Homo sapiens, 72 h; KYSE-30, RAF WT, RAS WT, 3-day; read-out: gIC50
How it was run: as §1

OE-19 = conditions: Homo sapiens, OE19, 72 h; OE-19, RAF WT, RAS WT, 3-day; read-out: gIC50
How it was run: as §1

IGROV1 = conditions: Homo sapiens, IGROV-1, 72 h; IGROV1, RAF WT, RAS WT, 3-day; read-out: gIC50
How it was run: as §1

U251 = conditions: Homo sapiens, U-251, 72 h; U251, RAF WT, RAS WT, 3-day; read-out: gIC50
How it was run: as §1

CC(C)(C)c1nc(-c2cccc(NS(=O)(=O)c3c(F)cccc3F)c2F)c(-c2ccnc(N)n2)s1 [dabrafenib]
IC50 (SNU-449): > 10 µM
IC50 (EFM-19): > 10 µM
IC50 (HCC-1954): > 10 µM
IC50 (SW1088): > 10 µM
IC50 (EKVX): > 10 µM
IC50 (SW-780): > 10 µM
IC50 (HuNS-1): > 10 µM
IC50 (SW480): > 10 µM
IC50 (BxPc3): > 10 µM
IC50 (HCC-2998): > 10 µM
IC50 (NCI-H2228): > 10 µM
IC50 (KPL-1): > 10 µM
IC50 (JRT3-T35): 0.295 µM
IC50 (U2OS): > 10 µM
IC50 (Daudi): > 10 µM
IC50 (SK-LMS-1): > 10 µM
IC50 (A204): > 10 µM
IC50 (KM-12): > 10 µM
IC50 (HT): > 10 µM
IC50 (HPAF-II): > 10 µM
IC50 (LS-174T): > 10 µM
IC50 (UACC-257): 0.006 µM
IC50 (LNCaP): > 10 µM
IC50 (A549): > 10 µM
IC50 (MCF-7): > 10 µM
IC50 (CGTHW1): > 10 µM
IC50 (SW-837): > 10 µM
IC50 (SCC-13): > 10 µM
IC50 (KYSE-30): > 10 µM
IC50 (OE-19): > 10 µM
IC50 (IGROV1): > 10 µM
IC50 (U251): > 10 µM
